Measurements: the supplement of paper PMC10307832

Assays:
Assay in all cases: relative viability (nuclei count vs DMSO), 5 days (fraction); higher = more cells survive
[1] = compound: CC(C)C[C@H](NC(=O)[C@H](CCc1ccccc1)NC(=O)CN1CCOCC1)C(=O)N[C@@H](Cc1ccccc1)C(=O)N[C@@H](CC(C)C)C(=O)[C@@]1(C)CO1 [Carfilzomib] + O=C(CCCCCCC(=O)Nc1ccccc1)NO [Vorinostat] (partner 1 µM)
Summary of the method: (§1)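 Lung cancer cell lines were pin-tool dosed in 1536-well plates on the day after seeding, with either a lone drug or a fixed anchor-drug dose plus five library-drug doses (not always all listed) in √10 steps. Nuclei were counted on 4× images after 5 days. Relative viability is the ratio of treated-well to vehicle-well nuclei counts, with each value a median of duplicate plates.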

[2] = compound: C[C@@H](Oc1cc(-c2cnn(C3CCNCC3)c2)cnc1N)c1c(Cl)ccc(F)c1Cl [Crizotinib] + CS(=O)(=O)CCNCc1ccc(-c2ccc3ncnc(Nc4ccc(OCc5cccc(F)c5)c(Cl)c4)c3c2)o1 [Lapatinib] (partner 2 µM)
Summary of the method: as §1

[3] = compound: C[C@@H](Oc1cc(-c2cnn(C3CCNCC3)c2)cnc1N)c1c(Cl)ccc(F)c1Cl [Crizotinib] + NC(=O)Nc1cc(-c2cccc(F)c2)sc1C(=O)N[C@H]1CCCNC1 [AZD7762] (partner 0.2 µM)
Summary of the method: as §1

[4] = compound: O=C(c1cc(Cc2n[nH]c(=O)c3ccccc23)ccc1F)N1CCN(C(=O)C2CC2)CC1 [Olaparib] + C[C@@H](Oc1cc(-c2cnn(C3CCNCC3)c2)cnc1N)c1c(Cl)ccc(F)c1Cl [Crizotinib] (partner 1 µM)
Summary of the method: as §1

| Cell Line | relative viability ([1]; first compound 0.001 µM) | relative viability ([1]; first compound 0.003162 µM) | relative viability ([1]; first compound 0.01 µM) | relative viability ([1]; first compound 0.03162 µM) | relative viability ([1]; first compound 0.1 µM) | relative viability ([2]; first compound 0.01 µM) | relative viability ([2]; first compound 0.03162 µM) | relative viability ([2]; first compound 0.1 µM) | relative viability ([2]; first compound 0.3162 µM) | relative viability ([2]; first compound 1 µM) | relative viability ([3]; first compound 0.01 µM) | relative viability ([3]; first compound 0.03162 µM) | relative viability ([3]; first compound 0.1 µM) | relative viability ([3]; first compound 1 µM) | relative viability ([4]; first compound 0.08 µM) | relative viability ([4]; first compound 0.253 µM) | relative viability ([4]; first compound 2.53 µM) | relative viability ([4]; first compound 8 µM) | relative viability ([3]; first compound 0.3162 µM) |
| --- | --- | --- | --- | --- | --- | --- | --- | --- | --- | --- | --- | --- | --- | --- | --- | --- | --- | --- | --- |
| HCC-15 | 0.927 | 0.821 | 0.951 | 0.506 | 0.132 | 0.831 | 0.881 | 0.886 | 0.549 | 0.836 | 1.07 | 0.721 | 1.2 | 1.14 | 0.96 | 0.75 | 0.851 | 0.69 | – |
| HCC-44 | 1.2 | 1.1 | 1.13 | 1.17 | 0.604 | 0.96 | 1.02 | 1.14 | – | 1.05 | 0.971 | 0.997 | 1.04 | 1.02 | 0.914 | 0.729 | 0.841 | 0.825 | 0.936 |
| HCC-78 | 0.433 | 0.467 | 0.461 | 0.303 | 0.283 | 0.77 | 0.828 | 0.697 | 0.261 | 1.26 | 0.657 | 0.686 | 0.618 | 0.487 | 0.395 | 0.356 | 0.396 | 0.368 | 0.572 |
| HCC-366 | 0.315 | 0.444 | 0.313 | 0.0693 | 0.0215 | 1 | 1.06 | 1.05 | – | 1.11 | 0.239 | 0.324 | 0.309 | 0.289 | 0.517 | 0.473 | 0.238 | 0.145 | – |
| HCC-827 | 0.821 | 0.913 | 0.943 | 0.673 | 0.189 | 0.153 | 0.211 | 0.178 | 0.175 | 0.18 | 0.236 | 0.201 | 0.184 | 0.217 | 0.941 | 0.908 | 0.949 | 0.814 | 0.174 |
| HOP-62 | 0.559 | 0.632 | 0.215 | 0.0689 | 0.0634 | 0.796 | 1.15 | 1.01 | 0.84 | 1 | 0.447 | 0.508 | 0.622 | 0.633 | 1.07 | 0.902 | 0.792 | 0.631 | 0.565 |
| LC-2-ad | 0.811 | 0.755 | 0.75 | 0.44 | 0.245 | 0.866 | 0.981 | 1.03 | – | 0.54 | 0.779 | 0.854 | 0.846 | 0.853 | 0.368 | 0.388 | 0.472 | 0.406 | – |
| LCLC-97TM1 | 0.705 | 1.03 | 0.346 | 0.0531 | 0.0462 | 1.08 | 0.927 | 1.04 | – | 1.12 | 0.193 | 0.138 | 0.252 | 0.339 | 0.409 | 0.35 | 0.365 | 0.305 | 0.104 |
| LK-2 | 0.257 | 0.345 | 0.177 | 0.189 | 0.175 | 0.953 | 0.852 | 0.819 | 0.867 | – | 0.533 | 0.293 | 0.341 | 0.398 | 0.177 | 0.181 | 0.192 | 0.186 | 0.204 |
